The values that follow come from the CombiSolv-Exp solvation set (Vermeire and Green 2021).

A short description of the series: solvent given as SMILES.

For the compound `CCc1ccccc1`, the “solvation free energy, 298 K” value was -6.03 kcal/mol (in C1CCOC1); -5.7 kcal/mol (in C1COCCO1); -5.07 kcal/mol (in C=CCCCCCCCCCCCCCC); -5.19 kcal/mol (in CC#N); -5.46 kcal/mol (in CC(=O)N(C)C); -4.99 kcal/mol (in CC(C)(C)O). The “solvation free energy, 298 K” value reads like this: (in CC(C)CC(C)(C)C) -5.3 kcal/mol; (in CC(C)CO) -4.95 kcal/mol; (in CC(C)O) -4.88 kcal/mol; (in CC(O)CO) -4.1 kcal/mol; (in CCC#N) -5.78 kcal/mol; (in CCC(C)=O) -5.62 kcal/mol. The “solvation free energy, 298 K” value (in CCCC#N) was -5.6 kcal/mol; the “solvation free energy, 298 K” value (in CCCCC(CC)COC(=O)CCCCC(=O)OCC(CC)CCCC) was -5.37 kcal/mol; the “solvation free energy, 298 K” value (in CCCCCC) was -5.35 kcal/mol; the “solvation free energy, 298 K” value (in CCCCCCC) is -5.36 kcal/mol; the “solvation free energy, 298 K” value (in CCCCCCCCCC) is -5.23 kcal/mol; the “solvation free energy, 298 K” value (in CCCCCCCCCCCCCCCC) was -5.16 kcal/mol. Further, the “solvation free energy, 298 K” value (in CCCCCCCCO) was -5.05 kcal/mol; the “solvation free energy, 298 K” value (in CCCCN(C=O)CCCC) is -5.44 kcal/mol; the “solvation free energy, 298 K” value (in CCCCOC(=O)c1ccccc1C(=O)OCCCC) is -5.38 kcal/mol; the “solvation free energy, 298 K” value (in CCCO) was -4.93 kcal/mol; the “solvation free energy, 298 K” value (in CCO) is -4.83 kcal/mol; the “solvation free energy, 298 K” value (in CCOC(=O)c1ccccc1C(=O)OCC) was -5.23 kcal/mol. Also, the “solvation free energy, 298 K” value by setting is: (in CN(C)C=O) -5.41 kcal/mol; (in CNC(C)=O) -5.05 kcal/mol; (in CNC=O) -4.82 kcal/mol; (in CO) -4.86 kcal/mol; (in COCCO) -5.05 kcal/mol; (in Clc1ccccc1) -5.84 kcal/mol. Also, the “solvation free energy, 298 K” value is -3.26 kcal/mol (in NC=O); -0.72 kcal/mol (in O); -5.01 kcal/mol (in O=CN1CCOCC1); -5.04 kcal/mol (in O=Cc1ccco1); -4.4 kcal/mol (in OCCCCCO); -4.2 kcal/mol (in OCCCCO). Moreover, the “solvation free energy, 298 K” value is, setting by setting: (in OCCCO) -3.91 kcal/mol; (in OCCO) -3.36 kcal/mol; (in OCCOCCO) -4.15 kcal/mol; (in OCCOCCOCCO) -4.31 kcal/mol; (in OCCOCCOCCOCCO) -4.38 kcal/mol.
For `CC(=O)OCC(COC(C)=O)OC(C)=O`, the “solvation free energy, 298 K” value (in O) is -8.84 kcal/mol.
Same read-out and setting: to `CC(C)CCCOC(=O)c1ccccc1C(=O)OCCCC(C)C` belongs -6.73 kcal/mol; to `O=c1[nH]cc(F)c(=O)[nH]1`, -16.9 kcal/mol; to `CC(=O)c1ccncc1`, -7.62 kcal/mol.
On the same count and under the same terms, to `CCNc1nc(Cl)nc(NCC)n1` belongs -10.1 kcal/mol.
Turning to `O=Cc1ccccc1`, the “solvation free energy, 298 K” value by setting is: (in CCCCCC) -5.53 kcal/mol; (in CCCCCCC) -5.5 kcal/mol; (in CCCCCCCCCCCCCCCC) -5.37 kcal/mol; (in O) -4.02 kcal/mol.
`Nc1ncnc2nc[nH]c12`: the “solvation free energy, 298 K” value runs as follows: (in C=CCCCCCCC=C) -10.2 kcal/mol; (in C=CCCCCCCCCCCCCCC) -9.84 kcal/mol; (in O) -17.4 kcal/mol.
As to `CCCOC=O`, the “solvation free energy, 298 K” value reads like this: (in CCCCCCCCCCCCCCCC) -3.29 kcal/mol; (in CCCCCCCCO) -3.64 kcal/mol; (in O) -2.51 kcal/mol; (in [2H]O[2H]) -2.55 kcal/mol.
`CC(C)N(N=O)C(C)C`: the “solvation free energy, 298 K” value is -6.07 kcal/mol (in CC(C)CC(C)(C)C) and -5.16 kcal/mol (in O).
As for `CCCCCCCCC=CCCCCCCCCCCCC(=O)OC`, the “solvation free energy, 298 K” value (in O) is -1.09 kcal/mol.
Take `CCCCC(=O)CC`: the “solvation free energy, 298 K” value runs as follows: (in CCCCCCC) -5.42 kcal/mol; (in CCCCO) -5.8 kcal/mol; (in CO) -5.85 kcal/mol; (in O) -3.04 kcal/mol.
As for `Clc1cccc2c1Oc1ccccc1O2`, the “solvation free energy, 298 K” value (in O) was -3.52 kcal/mol.
With `C=CC(C)CC` (configuration not stated), the “solvation free energy, 298 K” value (in CC#N) was -2.7 kcal/mol.
Consider `Clc1c(Cl)c(Cl)c(-c2c(Cl)c(Cl)c(Cl)c(Cl)c2Cl)c(Cl)c1Cl`, for which the “solvation free energy, 298 K” value reads like this: (in CCCCCCCCC=CCCCCCCCC(=O)OCC(COC(=O)CCCCCCCC=CCCCCCCCC)OC(=O)CCCCCCCC=CCCCCCCCC) -14.6 kcal/mol; (in O) -3.05 kcal/mol.
For the compound `CCCCC[N+](=O)[O-]`, the “solvation free energy, 298 K” value (in O) is -2.82 kcal/mol.
As to `c1ccc2c(c1)OCCOCCOc1ccccc1OCCOCCO2`, the “solvation free energy, 298 K” value by setting is: (in Cc1cccc(C)c1) -21.7 kcal/mol; (in O) -18.2 kcal/mol.
Turning to `CC1(C)CCCC2(C)C3CC4C(C31)C42C` (configuration not stated), the “solvation free energy, 298 K” value (in O) turned out to be 1.12 kcal/mol.
As to `CC(C)(c1ccc(O)cc1)c1ccc(O)cc1`, the “solvation free energy, 298 K” value reads like this: (in CCCCCCC) -13 kcal/mol; (in CCCCCCCC) -12.9 kcal/mol; (in CCCCCCCCCC) -12.8 kcal/mol; (in Cc1ccc(C)cc1) -15.5 kcal/mol; (in Cc1cccc(C)c1) -15.5 kcal/mol; (in Cc1ccccc1C) -15.6 kcal/mol. For the same compound, the “solvation free energy, 298 K” value (in O) is -14.4 kcal/mol.
Consider `C1COCCN1`, for which the “solvation free energy, 298 K” value is, setting by setting: (in C1COCCO1) -5.72 kcal/mol; (in O) -7.17 kcal/mol.
In the case of `CC(C)C(C)C(C)C`, the “solvation free energy, 298 K” value reads like this: (in Brc1ccccc1) -4.64 kcal/mol; (in C1CCCCC1) -5.1 kcal/mol; (in C1CCOC1) -4.92 kcal/mol; (in C1COCCO1) -4.17 kcal/mol; (in C=CCCCC) -5 kcal/mol; (in C=CCCCCCC) -4.92 kcal/mol. Further, the “solvation free energy, 298 K” value is -4.84 kcal/mol (in C=CCCCCCCCC); -2.86 kcal/mol (in CC1COC(=O)O1); -3.46 kcal/mol (in CC#N); -3.7 kcal/mol (in CC(=O)N(C)C); -3.77 kcal/mol (in CC(=O)O); -3.96 kcal/mol (in CC(=O)c1ccccc1). Also, the “solvation free energy, 298 K” value is, setting by setting: (in CC(C)=O) -4.14 kcal/mol; (in CC(C)CC(C)(C)C) -4.9 kcal/mol; (in CC(C)CCCC(C)CCCC(C)CCCCC(C)CCCC(C)CCCC(C)C) -4.48 kcal/mol; (in CC(C)CCO) -4.31 kcal/mol; (in CC(C)O) -4.09 kcal/mol; (in CC(C)OC(C)C) -4.9 kcal/mol. Besides, the “solvation free energy, 298 K” value (in CCBr) is -5.01 kcal/mol; the “solvation free energy, 298 K” value (in CCC#N) is -3.86 kcal/mol; the “solvation free energy, 298 K” value (in CCC(C)=O) is -4.39 kcal/mol; the “solvation free energy, 298 K” value (in CCCC#N) was -4.14 kcal/mol; the “solvation free energy, 298 K” value (in CCCC(=O)OCC) is -4.61 kcal/mol; the “solvation free energy, 298 K” value (in CCCC(C)=O) was -4.49 kcal/mol. Besides, the “solvation free energy, 298 K” value is, setting by setting: (in CCCCC) -5.05 kcal/mol; (in CCCCCC) -5.03 kcal/mol; (in CCCCCC(C)=O) -4.51 kcal/mol; (in CCCCCCC) -4.98 kcal/mol; (in CCCCCCCC) -4.91 kcal/mol; (in CCCCCCCCC) -4.87 kcal/mol. For the same compound, the “solvation free energy, 298 K” value (in CCCCCCCCCC) is -4.84 kcal/mol; the “solvation free energy, 298 K” value (in CCCCCCCCCCCC) is -4.74 kcal/mol; the “solvation free energy, 298 K” value (in CCCCCCCCCCCCCCCC) is -4.66 kcal/mol; the “solvation free energy, 298 K” value (in CCCCCCCCO) is -4.33 kcal/mol; the “solvation free energy, 298 K” value (in CCCCCCOC(C)=O) is -4.59 kcal/mol; the “solvation free energy, 298 K” value (in CCCCO) is -4.23 kcal/mol. Besides, the “solvation free energy, 298 K” value (in CCCCOC(C)=O) is -4.56 kcal/mol; the “solvation free energy, 298 K” value (in CCCCOCCCC) is -4.88 kcal/mol; the “solvation free energy, 298 K” value (in CCCO) is -4.1 kcal/mol; the “solvation free energy, 298 K” value (in CCN(CC)CC) is -4.98 kcal/mol; the “solvation free energy, 298 K” value (in CCO) was -4.02 kcal/mol; the “solvation free energy, 298 K” value (in CCOC(C)=O) was -4.41 kcal/mol. Further, the “solvation free energy, 298 K” value is -4.96 kcal/mol (in CCOCC); -4.33 kcal/mol (in CCOCCOCCOCC); -4.42 kcal/mol (in CCOc1ccccc1); -3.6 kcal/mol (in CN1CCCC1=O); -3.53 kcal/mol (in CN(C)C=O); -3.97 kcal/mol (in CN(C)P(=O)(N(C)C)N(C)C). Besides, the “solvation free energy, 298 K” value by setting is: (in CNC=O) -3.19 kcal/mol; (in CO) -3.64 kcal/mol; (in COC(C)=O) -4.22 kcal/mol; (in COCCO) -3.52 kcal/mol; (in COc1ccccc1) -4.35 kcal/mol; (in CS(C)=O) -2.63 kcal/mol. Further, the “solvation free energy, 298 K” value was -4.85 kcal/mol (in Cc1ccc(C)cc1); -4.85 kcal/mol (in Cc1ccccc1); -4.45 kcal/mol (in Cc1ccccn1); -5.09 kcal/mol (in ClC(Cl)(Cl)Cl); -4.98 kcal/mol (in ClC(Cl)Cl); -4.4 kcal/mol (in ClCCCl). The “solvation free energy, 298 K” value reads like this: (in ClCCl) -4.74 kcal/mol; (in Clc1ccccc1) -4.84 kcal/mol; (in FC(F)(F)C(F)(F)C(F)(F)C(F)(F)C(F)(F)C(F)(F)C(F)(F)C(F)(F)F) -3.34 kcal/mol; (in FC(F)(F)C(F)(F)C(F)(F)C(F)(F)C(F)(F)C(F)(F)F) -3.4 kcal/mol; (in Fc1ccccc1) -4.75 kcal/mol; (in ICI) -2.94 kcal/mol. In addition, the “solvation free energy, 298 K” value is, setting by setting: (in N#Cc1ccccc1) -4.01 kcal/mol; (in Nc1ccccc1) -3.27 kcal/mol; (in O) 2.57 kcal/mol; (in O=C1CCCCC1) -4.32 kcal/mol; (in O=C1CCCO1) -3.01 kcal/mol; (in OCc1ccccc1) -3.52 kcal/mol. The “solvation free energy, 298 K” value reads like this: (in S=C=S) -5.06 kcal/mol; (in c1ccccc1) -4.83 kcal/mol; (in c1ccncc1) -4.17 kcal/mol.
As for `CCCOCCOC(=O)c1ccccc1C(=O)OCCOCCC`, for the setting “in O”, the “solvation free energy, 298 K” value was -13.2 kcal/mol.
The same measure, in the same setting: under `Nc1ccc(S(=O)(=O)Nc2nccs2)cc1` stands -18.2 kcal/mol; under `O=P(c1ccccc1)(c1ccccc1)c1ccccc1`, -17 kcal/mol.
The same measure, in the same setting: under `CS(C)(=O)=O` stands -10.1 kcal/mol.
Same read-out and setting: under `CCOC(=O)CC(=O)OCC` stands -6 kcal/mol.
For `CC(C)CBr`, the “solvation free energy, 298 K” value is, setting by setting: (in C=CCCCCCCCCCCCCCC) -3.98 kcal/mol; (in O) -0.03 kcal/mol.
Consider `FC(F)(F)c1ccccc1`, for which, for the setting “in O”, the “solvation free energy, 298 K” value was -0.25 kcal/mol.
`CBr`: the “solvation free energy, 298 K” value (in O) was -0.82 kcal/mol.
`CCN(C)N=O`: the “solvation free energy, 298 K” value was -4.43 kcal/mol (in CC(C)CC(C)(C)C) and -5.73 kcal/mol (in O).
